These are literature values, as cited in patent publication US8282955B2, “Method for the preparation of a pharmaceutical composition comprising 5-aminosalicylic acid for use in treatment of ulcerative colitis and Crohn's disease” (Ferring B.V., priority 2001, dated 2012).

For the data set the following is noted: moisture and light.

Take `Nc1ccc(O)c(C(=O)O)c1` [Batch 5-ASA, 5-aminosalicylic acid]: the Stability result is “poor stability”.
